ChEMBL document CHEMBL1126212, “A peptide-acridine conjugate with ribonucleolytic activity” (1992)
Peptide text beside a SMILES is read from it. * marks the point of attachment. Acridine9carbonyl = O=C(c1c2ccccc2nc2ccccc12)*

Tested on: Escherichia coli
Assay: Evaluated for the ribosomal RNA cleavage using Gel-permeation analysis as difference in retention time
Assay type: functional

| SMILES | Difference in retention time |
| --- | --- |
| Cc1ccc2nc3ccccc3c(C=O)c2c1 | 0.3 min |
| N[C@@H](Cc1c[nH]cn1)C(=O)N1CCC[C@H]1C(=O)N[C@@H](Cc1c[nH]cn1)C(=O)N[C@@H](CCCCNC(=O)c1c2ccccc2nc2ccccc12)C(=O)O (H-HPHK(Acridine9carbonyl)-OH) | 3.4 min |
| NCCCC[C@H](NC(=O)[C@H](Cc1c[nH]cn1)NC(=O)[C@@H]1CCCN1C(=O)[C@@H](N)Cc1c[nH]cn1)C(N)=O (H-HPHK-NH2) | 0.2 min |
